From patent US8633245B2, “PAI-1 inhibitor” (Institute of Medicinal Molecular Design, Inc., priority 2008, dated 2014)
Where two headings read alike, the source gives them in different places.

Target: T1, recombinant human PAI-1 (Homo sapiens, UniProt P05121)
T1 construct: purchased Molecular Innovations, Inc
Assay: Test Example 2: human PAI-1 inhibitory activity (tPA fluorogenic substrate, pH 7.4 HEPES buffer)
Type: biochemical
Details: for inhibition at 3 µM: read-out: Inhibition Rate of PAI-1 Activity (%)
Protocol: 0.1 M HEPES, 0.1 M NaCl. 1 mM EDTA. 0.1% Polyethylene glycol 8,000 (Hampton Research Corporation),
2 mM Dimethyldecylphoshine oxide [Apo-10] (Fluka Corporation)

[1] = human PAI-1, compound concentration 0.1 μM
[2] = human PAI-1, compound concentration 0.3 μM
[3] = human PAI-1, compound concentration 1 μM
[4] = human PAI-1, compound concentration 3 μM
[5] = human PAI-1, calculated from the inhibition rates

T1 sequence (P05121 24-402): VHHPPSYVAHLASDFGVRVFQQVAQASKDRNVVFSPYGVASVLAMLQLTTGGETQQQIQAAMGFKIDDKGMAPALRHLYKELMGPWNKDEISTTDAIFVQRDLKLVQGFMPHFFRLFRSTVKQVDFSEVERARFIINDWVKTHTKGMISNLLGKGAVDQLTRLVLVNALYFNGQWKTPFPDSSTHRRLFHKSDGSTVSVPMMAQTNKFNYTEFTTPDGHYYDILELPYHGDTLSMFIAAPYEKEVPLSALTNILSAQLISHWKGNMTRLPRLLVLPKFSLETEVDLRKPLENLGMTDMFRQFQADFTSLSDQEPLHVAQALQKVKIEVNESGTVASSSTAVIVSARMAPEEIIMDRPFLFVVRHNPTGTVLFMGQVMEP

Row | SMILES | Inhibition Rate of PAI-1 Activity (%) [1] | Inhibition Rate of PAI-1 Activity (%) [2] | Inhibition Rate of PAI-1 Activity (%) [3] | Inhibition Rate of PAI-1 Activity (%) [4] | further results
1 | O=C(O)/C=C/c1cc(-c2ccc(OC(F)(F)F)cc2)ccc1OCCCCCOc1ccc(-c2ccc(OC(F)(F)F)cc2)cc1/C=C/C(=O)O [Compound 543] | 0% | 1% | 73% | 94% | –
2 | CC(C)(C)c1ccc(Oc2cc(-c3ccc(OC(F)(F)F)cc3)ccc2CC(=O)O)cc1 [Compound 334] | – | – | – | – | IC50 [5]: 1.91 µM
3 | CC(C)(C)c1ccc(CN(C(=O)CC(=O)O)c2ccc(-c3ccc(OC(F)(F)F)cc3)cc2)cc1 [Compound 608] | – | – | 11% | 59% | Inhibition Rate of PAI-1 Activity (%) (human PAI-1, compound concentration 10 μM): 95%; Inhibition Rate of PAI-1 Activity (%) (human PAI-1, compound concentration 25 μM): 95%
4 | CC(C)(C)c1ccc(Cc2cc(-c3ccc(OC(F)(F)F)cc3)ccc2OCC(=O)O)cc1 [Compound 550] | 0% | 2% | 81% | >99% | –
5 | CC(C)c1ccccc1Oc1cc(-c2ccc(OC(F)(F)F)cc2)ccc1CCC(=O)O [Compound 491] | 6% | 10% | 66% | >99% | –
6 | CCCCOc1ccc(-c2ccc(OCC(=O)O)c(Oc3ccc(C(C)(C)C)cc3)c2)cc1 [Compound 468] | 1% | 5% | 86% | 97% | –
7 | Cc1ccc(-c2ccc(OCC(=O)O)c(Oc3ccc(C(C)(C)C)cc3)c2)cc1 [Compound 444] | 0% | 0% | 11% | 96% | –
8 | CCCCCCC(Oc1cc(-c2ccc(OC(F)(F)F)cc2)ccc1Oc1ccc(C(C)(C)C)cc1)C(=O)O (stereo not shown) [Compound 323] | – | – | – | – | IC50 [5]: 0.49 µM
9 | CCCCCOc1cc(-c2ccc(OC(F)(F)F)cc2)ccc1N(CCCCc1ccccc1)C(=O)C(=O)O [Compound 367] | – | – | – | – | IC50: 0.9 µM
10 | O=C(O)C(=O)N(CCCCc1ccccc1)c1cc(-c2ccc(OC(F)(F)F)cc2)ccc1OCCCCC(F)(F)F [Compound 381] | – | – | – | – | IC50: 1.04 µM; inhibition at 3 µM: > 99%
11 | O=C(O)CCc1ccc(-c2ccc(OC(F)(F)F)cc2)cc1Oc1ccc(C(F)(F)F)cc1 [Compound 474] | 2% | 11% | 43% | >99% | –
12 | CCCCC(Nc1cc(-c2ccc(OC(F)(F)F)cc2)ccc1Oc1ccc(C(C)(C)C)cc1)C(=O)O (stereo not shown) [Compound 423] | 1% | 1% | 74% | 96% | –
13 | O=C(O)C(=O)N(Cc1ccc(-c2ccc(OC(F)(F)F)cc2)cc1)c1ccccc1-c1ccccc1 [Compound 632] | 0% | 9% | 31% | 97% | –
14 | CCCCCCOc1ccc(-c2ccc(OC(F)(F)F)cc2)cc1N(CCCCc1ccccc1)C(=O)C(=O)O [Compound 652] | 19% | 22% | >99% | >99% | –
15 | CC(C)(C)C1CCC(N(C(=O)C(=O)O)c2ccc(-c3ccc(OC(F)(F)F)cc3)cc2)CC1 (stereo not shown) [Compound 666] | – | – | – | – | Inhibition Rate of PAI-1 Activity (%) (human PAI-1, compound concentration 0.1 μM, 0.1 µM): 0%; Inhibition Rate of PAI-1 Activity (%) (human PAI-1, compound concentration 0.3 μM, 0.3 µM): 21%; Inhibition Rate of PAI-1 Activity (%) (human PAI-1, compound concentration 1 μM, 1 µM): 89%; Inhibition Rate of PAI-1 Activity (%) (human PAI-1, compound concentration 3 μM, 3 µM): 98%
16 | CCCCCOc1cc(-c2cccc(C(F)(F)F)c2)ccc1N(CCCCc1ccccc1)C(=O)C(=O)O [Compound 377] | – | – | – | – | IC50: 0.48 µM
17 | CCCCc1ccc(Oc2cc(-c3ccc(OC(F)(F)F)cc3)ccc2OCC(=O)O)cc1 [Compound 481] | 19% | 16% | 70% | >99% | –

Row | SMILES | Inhibition Rate of PAI-1 Activity (%) [1] | Inhibition Rate of PAI-1 Activity (%) [2] | Inhibition Rate of PAI-1 Activity (%) [3] | Inhibition Rate of PAI-1 Activity (%) [4] | further results
18 | CCCCCOc1ccc(-c2ccc(OC(F)(F)F)cc2)cc1N(CCCOc1ccccc1)C(=O)C(=O)O [Compound 356] | – | – | – | – | IC50 [5]: 0.93 µM; inhibition at 3 µM: > 99%
19 | CSc1ccc(-c2ccc(OCC(=O)O)c(Oc3ccc(C(C)(C)C)cc3)c2)cc1 [Compound 448] | 4% | 11% | 39% | >99% | –
20 | CC(C)(C)c1ccc(Oc2cc(-c3ccccc3OC(F)(F)F)ccc2OCC(=O)O)cc1 [Compound 456] | 7% | 13% | 70% | 98% | –
21 | CCCCCOc1ccc(-c2ccc(OC(F)(F)F)cc2)cc1N(CCCCc1cc(C)ccc1C)C(=O)C(=O)O [Compound 670] | 6% | 55% | 97% | 94% | –
22 | CC(C)(C)c1ccc(Sc2cc(-c3ccc(OC(F)(F)F)cc3)ccc2C(=O)C(=O)O)cc1 [Compound 548] | 0% | 16% | 95% | >99% | –
23 | CCCCCOc1cc(-c2ccc(OC(F)(F)F)cc2)ccc1CN(C(=O)C(=O)O)c1ccc(C(C)(C)C)cc1 [Compound 648] | 4% | 23% | 86% | 89% | –
24 | CCCCCOc1cc(Oc2ccc(OC(F)(F)F)cc2)ccc1N(CCCCc1ccccc1)C(=O)C(=O)O [Compound 362] | – | – | – | – | IC50: 0.84 µM; inhibition at 3 µM: > 99%
25 | CCCCC(C(=O)O)N(Cc1ccc(C(C)(C)C)cc1)c1cccc(-c2ccc(OC(F)(F)F)cc2)c1 (stereo not shown) [Compound 641] | 9% | 53% | 95% | 95% | –
26 | CCCCc1ccc(Oc2cc(-c3ccc(OC(F)(F)F)cc3)ccc2/C=C/C(=O)O)cc1 [Compound 511] | 11% | 68% | >99% | >99% | –
27 | CC(C)(C)c1ccc(Oc2ccc(-c3ccc(C(C)(C)C)cc3)cc2OCC(=O)O)cc1 [Compound 453] | 4% | 15% | 96% | >99% | –
28 | O=C(O)C(=O)N(CCCCc1ccccc1)c1ccc(N2CCCCCC2)c(-c2ccc(OC(F)(F)F)cc2)c1 [Compound 674] | 5% | 55% | >99% | 98% | –
29 | CC(C)(C)c1ccc(Sc2cc(-c3ccc(OC(F)(F)F)cc3)ccc2C(=O)O)cc1 [Compound 547] | 4% | 17% | 97% | >99% | –
30 | O=C(O)C(=O)N(CCCCc1ccccc1)c1cc(-c2ccc(OC(F)(F)F)cc2)ccc1OCCCCc1ccccc1 [Compound 354] | – | – | – | – | IC50 [5]: 0.56 µM
31 | O=C(O)C(=O)N(CCCCc1ccccc1)c1cc(-c2ccc(OC(F)(F)F)cc2)ccc1OCCCC1CCCC1 [Compound 355] | – | – | – | – | IC50 [5]: 0.64 µM
32 | CCCCC(Oc1cc(-c2ccc(OC(F)(F)F)cc2)ccc1OCCCCc1ccccc1)C(=O)O (stereo not shown) [Compound 306] | – | – | – | – | IC50 [5]: 0.88 µM
33 | CC(C)(C)c1cccc(Oc2cc(-c3cccc(OC(F)(F)F)c3)ccc2/C=C/C(=O)O)c1 [Compound 514] | 21% | 22% | 96% | >99% | –
34 | O=C(O)/C=C/c1ccc(-c2ccc(OC(F)(F)F)cc2)cc1Oc1ccc(OC(F)(F)F)cc1 [Compound 477] | 7% | 21% | 60% | >99% | –
